We go through four molecules from doi:10.1101/801928v2 (biorxiv, 2019).

This assay has as its target T1, HmtS (Streptomyces himastatinicus, UniProt G0LWB2).
T1 sequence (G0LWB2 2-397): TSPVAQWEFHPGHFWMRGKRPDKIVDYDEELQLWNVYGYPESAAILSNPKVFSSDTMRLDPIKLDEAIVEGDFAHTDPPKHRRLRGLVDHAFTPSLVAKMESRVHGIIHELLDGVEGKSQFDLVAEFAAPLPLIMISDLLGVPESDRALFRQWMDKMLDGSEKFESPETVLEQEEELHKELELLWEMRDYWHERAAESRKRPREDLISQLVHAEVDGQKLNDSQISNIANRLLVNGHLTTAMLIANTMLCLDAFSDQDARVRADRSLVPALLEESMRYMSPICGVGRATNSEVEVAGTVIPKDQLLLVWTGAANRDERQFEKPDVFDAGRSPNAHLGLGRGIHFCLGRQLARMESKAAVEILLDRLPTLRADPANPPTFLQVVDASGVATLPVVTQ
Put plainly: microscale thermophoresis, NT647-labelled enzyme. Format: binding.

The structures appear in SMILES notation. pKd: −log10 of the molar value.

`NC(=O)C1=CN([C@@H]2O[C@H](COP(=O)(O)OP(=O)(O)OC[C@H]3O[C@@H](n4cnc5c(N)ncnc54)[C@H](OP(=O)(O)O)[C@@H]3O)[C@@H](O)[C@H]2O)C=CC1` [NADPH] had a negative logarithm of the Kd (pKd) of 4.08.
Take `Cc1cc2nc3c(=O)[nH]c(=O)nc-3n(C[C@H](O)[C@H](O)[C@H](O)COP(=O)(O)OP(=O)(O)OC[C@H]3O[C@@H](n4cnc5c(N)ncnc54)[C@H](O)[C@@H]3O)c2cc1C` [FAD]: the pKd was 4.37.
With `Cc1cc2nc3c(=O)[nH]c(=O)nc-3n(C[C@H](O)[C@H](O)[C@H](O)COP(=O)(O)O)c2cc1C` [FMN], the negative logarithm of the Kd (pKd) was 4.40.
In turn, `Cc1cc2nc3c(=O)[nH]c(=O)nc-3n(C[C@H](O)[C@H](O)[C@H](O)CO)c2cc1C` [riboflavin] had a pKd of 5.72.

In general, pKd refers to −log10 of the Kd, conventionally taken in molar units.
